Here are results for 29 molecules from patent publication US8436031B2 (priority 2004, dated 2013).

Where only a bound is given, the exact number is not on record here.

One series has as its target SoxS (Escherichia coli, UniProt P0A9E2). Nature of the series: Chemiluminescence DNA binding assay, SoxS. More on the design: species or system E. coli. The note with it: for EC50 for SoxS compared with ARD: relative to ARD; for EC50: E. coli SoxS, DNA binding.
A further series concerns the target SlyA (Salmonella typhimurium, UniProt P40676). As to the kind of experiment: Chemiluminescence DNA binding assay, SlyA (MarR protein control). More on the design: species or system S. typhimurium.
The target of the next series is Rob (Escherichia coli, UniProt P0ACI0). Nature of the series: Chemiluminescence DNA binding assay, Rob. The note with it: E. coli Rob.
A further series deals with Rma (Salmonella typhimurium, UniProt H9L484). As to the kind of experiment: Chemiluminescence DNA binding assay, Rma. Further details: species or system S. typhimurium.
The target in a further series is PqrA (Proteus mirabilis, UniProt B4ETM4). As to the kind of experiment: Chemiluminescence DNA binding assay, PqrA. The note with it: P. mirabilis PqrA.
Series [1] addresses T1, MarA (Escherichia coli, UniProt P0ACH5). Nature of the series: Chemiluminescence DNA binding assay, MarA. The note with it: E. coli MarA.
Target sequence in this assay (P0ACH5 whole entry): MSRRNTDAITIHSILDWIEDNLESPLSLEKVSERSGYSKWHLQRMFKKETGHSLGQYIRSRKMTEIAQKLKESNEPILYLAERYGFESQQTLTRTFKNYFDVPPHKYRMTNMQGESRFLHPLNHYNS
Another series has as its target ExsA (Pseudomonas aeruginosa, UniProt P26993). As to the kind of experiment: Chemiluminescence DNA binding assay, ExsA. Further details: species or system P. aeruginosa.
The next series concerns the target LcrF (VirF) (Yersinia pseudotuberculosis, UniProt Q663J0). Nature of the series: biochemical. Format: binding, Y. pseudotuberculosis.
The nature of series [2]: In vivo toxicity, repeat dose experiments. The note with it: mice; subcutaneous 25 mg/Kg, two doses on day 1, single dose on days 2-5. On the procedure: The in vivo toxicity of Mar inhibitors ATB, BAB, BAF, BBP and BBS were investigated in repeat dose experiments. Mice were given two subcutaneous doses (25 mg/Kg) of a Mar inhibitor on day 1 and a single dose of the compound on days 2-5.

The target of series [3] is T1, MarA. Nature of the series: Selective marker (ccdB) under MarA-activated promoter; cell survival under MarA expression (Example 2). The series is classed as cell-based. More on the design: key: *: good inhibition of MarA; **: very good inhibition of MarA. The note with it: inhibition of MarA; cell survival under conditions of MarA expression. The source says: In this example, the expression of a selective marker (e.g., ccdB) is put under the direct control of a promoter activated by MarA (e.g., inaA, galT, or micF). In the absence of MarA, the expression of the selective marker is silent and cells survive. Synthesis of MarA from an inducible plasmid in a bacterial or yeast cell leads to the activation of the inaA promoter, expression of ccdB, and subsequently results in cell death. Compounds that inhibit MarA are those that permit cell survival under conditions of MarA expression. In Table 4, * indicates good inhibition of MarA and ** indicates very good inhibition of MarA.
Target sequence in this assay (P0ACH5 whole entry, looked up): as the sequence (P0ACH5 whole entry) above

ExsA, sequence (P26993 whole entry): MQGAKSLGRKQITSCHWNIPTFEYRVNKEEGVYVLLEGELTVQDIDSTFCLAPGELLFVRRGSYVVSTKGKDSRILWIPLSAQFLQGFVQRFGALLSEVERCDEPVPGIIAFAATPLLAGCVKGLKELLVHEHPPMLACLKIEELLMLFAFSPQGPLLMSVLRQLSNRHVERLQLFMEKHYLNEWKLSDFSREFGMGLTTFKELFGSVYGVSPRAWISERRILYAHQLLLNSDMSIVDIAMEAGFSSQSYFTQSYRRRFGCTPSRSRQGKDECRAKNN
LcrF (VirF), sequence (Q663J0 1-271): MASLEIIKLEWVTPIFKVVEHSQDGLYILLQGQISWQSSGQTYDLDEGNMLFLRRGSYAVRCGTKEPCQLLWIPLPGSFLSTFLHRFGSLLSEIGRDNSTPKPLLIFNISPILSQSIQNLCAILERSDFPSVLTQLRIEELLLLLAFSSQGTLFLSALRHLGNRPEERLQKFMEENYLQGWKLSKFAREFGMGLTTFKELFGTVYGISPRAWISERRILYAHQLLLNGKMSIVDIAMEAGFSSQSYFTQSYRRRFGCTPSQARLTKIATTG
SlyA, sequence (P40676 whole entry): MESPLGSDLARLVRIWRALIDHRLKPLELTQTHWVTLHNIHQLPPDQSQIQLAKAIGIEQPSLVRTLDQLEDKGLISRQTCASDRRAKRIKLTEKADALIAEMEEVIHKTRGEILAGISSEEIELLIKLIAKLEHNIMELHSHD
Rma, sequence (H9L484 whole entry): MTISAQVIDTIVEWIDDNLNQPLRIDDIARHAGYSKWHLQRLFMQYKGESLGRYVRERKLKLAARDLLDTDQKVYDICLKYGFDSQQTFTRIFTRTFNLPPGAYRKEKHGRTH
SoxS, sequence (P0A9E2 whole entry): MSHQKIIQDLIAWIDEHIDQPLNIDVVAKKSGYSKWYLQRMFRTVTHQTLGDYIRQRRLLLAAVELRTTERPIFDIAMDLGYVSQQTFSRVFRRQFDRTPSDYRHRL
Rob, sequence (P0ACI0 whole entry): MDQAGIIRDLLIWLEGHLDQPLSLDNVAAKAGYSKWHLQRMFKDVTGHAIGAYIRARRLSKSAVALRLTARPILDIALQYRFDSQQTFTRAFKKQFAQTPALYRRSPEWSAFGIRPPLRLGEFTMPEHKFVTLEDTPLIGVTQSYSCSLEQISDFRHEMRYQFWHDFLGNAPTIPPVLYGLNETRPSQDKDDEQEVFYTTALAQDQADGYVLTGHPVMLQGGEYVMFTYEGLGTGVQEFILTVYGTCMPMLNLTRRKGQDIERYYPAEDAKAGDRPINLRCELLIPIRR
PqrA, sequence (B4ETM4 entry or part of it): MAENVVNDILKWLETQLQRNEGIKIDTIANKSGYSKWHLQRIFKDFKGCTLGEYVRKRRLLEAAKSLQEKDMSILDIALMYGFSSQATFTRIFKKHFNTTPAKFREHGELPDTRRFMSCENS

For `COc1cccc(-c2nc3ccc([N+](=O)[O-])cc3n2O)c1` [ANU], the “EC50 for SoxS compared with ARD” value on SoxS is recorded as “higher than that of ARD”. Consider `O=[N+]([O-])c1ccc2nc(-c3ccoc3)n(O)c2c1` [AOW], for which the “EC50 for SoxS compared with ARD” value at SoxS is “higher than that of ARD”.

Turning to `O=[N+]([O-])c1ccc2nc(-c3ccco3)n(O)c2c1` [AOX], on SoxS, the “EC50 for SoxS compared with ARD” value was “higher than that of ARD”. Still for that read-out and setting: next, `NC(=O)c1ccc2nc(-c3ccccc3)n(O)c2c1` [APJ]: “higher than that of ARD”. Regarding `O=C(Nc1ccc(-c2nc3ccc([N+](=O)[O-])cc3n2O)cc1)c1ccccc1` [AQQ], at SoxS, the “EC50 for SoxS compared with ARD” value is “higher than that of ARD”.

As for `O=[N+](O)c1cccc2c1nc(-c1ccco1)n2O` [AQV], the “EC50 for SoxS compared with ARD” value on SoxS is listed as “higher than that of ARD”.

In the case of `CN(C)c1ccc(-c2nc3ccc([N+](=O)[O-])cc3n2O)cc1` [ARB], the “EC50 for SoxS compared with ARD” value at SoxS was “higher than that of ARD”. One may read the EC50 as the concentration at which the effect is half-maximal. `O=[N+]([O-])c1ccc2nc(-c3ccc(-c4ccccc4)o3)n(O)c2c1` [ARD]: the EC50 on SlyA is 11.9 µM; at Rob it was 28 µM; at SoxS it was 8.3 µM; on Rma, 17 µM; at PqrA, 13.6 µM; at MarA [1], 11.7 µM. The molecule further came in with an EC50 at ExsA of 15.6 µM.

On LcrF (VirF), `COc1ccc(C(=O)Nc2ccc(-c3nc4ccc([N+](=O)[O-])cc4n3O)cc2)cc1` [ASR] showed an EC50 of 18.3 µM. As to `O=C(NCc1ccc(-c2nc3ccc([N+](=O)[O-])cc3n2O)cc1)c1ccccc1` [ASS], the “EC50 for SoxS compared with ARD” value at SoxS is “higher than that of ARD”. Turning to `O=C(Nc1ccc(-c2nc3ccc([N+](=O)[O-])cc3n2O)cc1)c1ccc(Cl)cc1` [AST], the “EC50 for SoxS compared with ARD” value at SoxS was “higher than that of ARD”. As for `O=C(Nc1ccc(-c2nc3ccc([N+](=O)[O-])cc3n2O)cc1)c1ccc(F)cc1` [ASU], the EC50 amounted to 51 µM at SlyA; 4.7 µM at Rob; 3 µM at SoxS; 4.9 µM on Rma; 4 µM on ExsA; 17.7 µM on LcrF (VirF). As to `O=C(Nc1ccc(-c2nc3ccc([N+](=O)[O-])cc3n2O)cc1)c1cccc(Cl)c1` [ASX], the EC50 at SlyA turned out to be 21.7 µM; on Rob it was 3.4 µM; at SoxS, 4.9 µM; at Rma, 3.5 µM; on ExsA, 2.5 µM. Turning to `Cc1ccc(C(=O)Nc2ccc(-c3nc4ccc([N+](=O)[O-])cc4n3O)cc2)cc1` [ATB], the in vivo toxicity result in [2] is listed as “No overt signs of toxicity”. In addition, the EC50 on Rob was found to be 7.4 µM; at SoxS, 2.7 µM; on ExsA, 4 µM; at LcrF (VirF) it was 15.5 µM.

As to `CN(C)c1ccc(C(=O)Nc2ccc(-c3nc4ccc([N+](=O)[O-])cc4n3O)cc2)cc1` [ATE], the EC50 was determined as 14.3 µM on SlyA; 1.3 µM at Rob; 0.82 µM at SoxS; 1.8 µM at Rma; 1.4 µM on PqrA; 1.2 µM on MarA [1]. Besides, the EC50 on ExsA was found to be 1.9 µM; on LcrF (VirF) it was 36.5 µM. Consider `N#Cc1ccc(C(=O)Nc2ccc(-c3nc4ccc([N+](=O)[O-])cc4n3O)cc2)cc1` [BAB], for which the in vivo toxicity result in series [2] is reported as “No overt signs of toxicity”.

Regarding `CC(=O)c1ccc(C(=O)Nc2ccc(-c3nc4ccc([N+](=O)[O-])cc4n3O)cc2)cc1` [BAF], the in vivo toxicity entry in [2] is “No overt signs of toxicity”. Regarding `O=C(/C=C/c1ccc(F)cc1)Nc1ccc(-c2nc3ccc([N+](=O)[O-])cc3n2O)cc1` [BBP], in series [2], the in vivo toxicity result is “No overt signs of toxicity”. Besides, the EC50 on LcrF (VirF) turned out to be 7.1 µM. As to `O=C(Nc1ccc(-c2nc3ccc([N+](=O)[O-])cc3n2O)cc1)c1cccc(F)c1` [BBS], the in vivo toxicity entry in [2] is “No overt signs of toxicity”. Further, on LcrF (VirF), the midpoint of the response, the EC50, lay at 29 µM. For `Cc1cccc(C(=O)Nc2ccc(-c3nc4ccc([N+](=O)[O-])cc4n3O)cc2)c1` [BBT], the response on LcrF (VirF) was half-maximal at 27.5 µM (EC50).

On to `Cc1ccccc1C(=O)Nc1ccc(-c2nc3ccc([N+](=O)[O-])cc3n2O)cc1` [BBV], for which the EC50 at LcrF (VirF) is over 57.9 µM. On the same count and under the same terms, next, `O=C(Nc1ccc(-c2nc3ccc([N+](=O)[O-])cc3n2O)cc1)c1ccccc1F` [BBW]: over 57.3 µM.

`Cc1ccc(/C=C/C(=O)Nc2ccc(-c3nc4ccc([N+](=O)[O-])cc4n3O)cc2)cc1` [BCK] yielded an EC50 at LcrF (VirF) of 0.8 µM.

As for `COc1ccc(/C=C/C(=O)Nc2ccc(-c3nc4ccc([N+](=O)[O-])cc4n3O)cc2)cc1` [BCL], on LcrF (VirF), the response was half-maximal at 5.1 µM (EC50). On to `O=C(/C=C/c1ccc(F)cc1F)Nc1ccc(-c2nc3ccc([N+](=O)[O-])cc3n2O)cc1` [BCO], for which the concentration for a half-maximal effect (EC50) at LcrF (VirF) worked out at 2.2 µM.

In the case of `CCOC(=O)C1=C(C)N=c2s/c(=C/c3ccc(-c4cccc(C(F)(F)F)c4)o3)c(=O)n2C1c1ccccc1` (stereo not drawn) [U, 7-Methyl-3-oxo-5-phenyl-2-[5-(3-trifluoromethyl-phenyl)-furan-2-ylmethylene]-2,3-dihydro-5H-thiazolo[3,2-a]pyrimidine-6-carboxylic acid ethyl ester], on MarA [3], the “MarA inhibition score (cell survival)” value is “**”. The same measure, in the same setting: next, `CCOC(=O)C1=C(C)N=c2s/c(=C\c3ccc(-c4cccc(C(=O)O)c4)o3)c(=O)n2C1c1ccc(N(C)C)cc1` (stereo not drawn) [W, 2-[5-(3-Carboxy-phenyl)-furan-2-ylmethylene]-5-(4-dimethylamino-phenyl)-7-methyl-3-oxo-2,3-dihydro-5H-thiazolo[3,2-a]pyrimidine-6-carboxylic acid ethyl ester]: “**”; `CCOC(=O)C1=C(C)N=c2s/c(=C/c3ccc(-c4ccc(C)c([N+](=O)[O-])c4)o3)c(=O)n2C1c1ccc(N(C)C)cc1` (stereo not drawn) [X, 5-(4-Dimethylamino-phenyl)-7-methyl-2-[5-(4-methyl-3-nitro-phenyl)-furan-2-ylmethylene]-3-oxo-2,3-dihydro-5H-thiazolo[3,2-a]pyrimidine-6-carboxylic acid ethyl ester]: “**”; `O=C1C=Cc2ccccc2/C1=N\Oc1ccc2noc3c2c1C(=O)c1ccccc1-3` [Z, [1,2]Naphthoquinone 1-[O-(6-oxo-6H-anthra[1,9-cd]isoxazol-5-yl)-oxime]]: “*”.
